The results in this text go back to patent publication US20080286388A1, “Pharmaceutical Composition and Non Dependence Coffee Comprising Edible Carboxylic Acid and/or Its Acid Salts and Coffeine” (priority 2004, published 2008).

“And” between values parts separate entries of the source, which are not always exact repeats. Equal values may be shown once. Read-outs that look alike come from different tables or passages of the source.

Test [1] deals with mouse's leaching cell solution (abdominal cavity cells), histamine release by 48/80 compound. The test is described as follows: Drug inhibiting effect on histamine leaching from mouse abdominal cavity cells treated with 48/80 compound. Particulars: Mus musculus, testing drug 100 μg/ml. It is filed as cell-based. On the procedure:
This is a comparative testing for drug depressing effect on the amount of leaching histamines when is treated with 48/80 (Sigma, St. MO, USA) compound.
(1). Preparation of Leaching Cell Solution from Mouse Body.
A mouse is killed and bloodletting. Then 10 ml of Locke's solution containing 0.1% bovine serum protein is injected into its abdominal cavity. After abdominal cavity being light massaged, the cavity is cut and the Locke's solution is removed. Cavity is washed with another 5 ml of Locke's solution, and this washed solution is added to the latter one. This combined solution is centrifuged at 600 rpm for 5 minutes. The sediments are washed with 5 ml of cool Locke's solution. Adding 3 ml of cold Locke's solution to the washed sediments, then a leached cell solution of abdominal cavity is obtained. (The composition of Locke's solution is: NaCL […], KCL 0.2%, CaCL2 0.15%, glucose 1.0%, in w/v, and the rest distillated water.)
(2). Drug Inhibiting Effect on the Amount of Leaching Histamines when Treated with 48/80 Compound.
1.0 ml of each of those solutions in last term is mixed with 0.3 ml of mouse's leaching cell solution and 0.5 ml of Locke's solution. This mixture is cultivated at 37° C. for 5 minutes. Then adding 0.2 ml of Locke's solution of 48/80 compound (1 mg/100 ml) and cultivated at 37° C. for 10 minutes. Then the reaction is stopped by cooling, and centrifuged at 2,500 rpm for 10 minutes. 1.7 ml of decanted solution and 0.3 ml of sediments are obtained.
0.1 ml of water and 0.2 ml of 100% trichloroacetic acid are added to the decanted solution. 1.5 ml of Locke's solution and 0.2 ml of 100% trichloroacetic acid are added to the sediments washed solution. They are cultivated at room temperature for 30 minutes. After cultivation, the mixtures are centrifuged at 3,000 rpm for 15 minutes, respectively. 0.35 ml of each of the former two solutions is sampled. In each sample, 1.65 ml of water, 0.4 ml of 1N NaOH and 0.1 ml of 0.5% OPT (o-phthalic aldehyde) in methanol are added and cultivated at room temperature for 4 minutes. The reaction is stopped by adding 0.2 ml of 2M citric acid. And finally, determine the amount of released histamines in the tested solution by fluorescence method. By the analysis, results of the inhibiting rate of histamines could be calculated.
Locke's solution is instead of each drug in control group, and instead of both drug and 48/80 compound solution in blank group.
The histamine releasing rate (A) can be calculated by following equation. […] Where (Hs) is the total amount of histamine in the decanted solution, and (Hr) is the total amount of histamine in the sediment. (A)=[(Hs)/{(Hs)+(Hr)}]×100%. Then the inhibiting rate is:
=100−[(A−A in blank group)/(A−A in control group)]×100%.

For another test, the system named is mice. The test is described as follows: Anti-delayed type allergy reaction, oxazolone ear inflammation. It is filed as in vivo, mouse. Particulars: drug 2.0 w/v % in oxazolone acetone solution, 10 μl on right ear, 24 hr. On the procedure:
The weights of testing mice are ranging from 20 g to 30 g. They are coated with 0.1 ml of oxazolone alcohol solution (0.5 w/v %) on the hair cleaned part of abdomen. […] After 24 hr, the mouse is killed by ether and punched a circle area of a diameter of 5.5 mm on both right and left ears in corresponding part by a puncher machine (portions of drug coated and the blank). The punched portions are weighed and the inflammation rates calculated. The control group are coated only with the oxazolone acetone solution (0.5 w/v %). The inflammation inhibiting rates of each drug are calculated by following equation: Inflammation inhibiting rate (%)=[(weight of drug-coated right ear)−(weight of non-drug-coated left ear)]×100%/(weight of non-drug-coated left ear)

The test system of test [2] is patients with toothache caused by a crowned tooth swelling. The test is described as follows: Analgesia and suppuration for tooth. It counts as in vivo, human. The following applies: 2 g every two hours. An excerpt: It is not a best method in treating a toothache caused by a crowned tooth swelling that the ill tooth must be extracted or the crown must be destructed first. […] About 8 and 10 days were needed to suppurate and recovery completely when they could chew again. This method can keep the ill tooth without extraction.

A further test relates to person. Put plainly: Tests for increase the ability of learning and memory. It counts as in vivo, human. Particulars: Homo sapiens, po; three pieces of 600 mg, average of four tests before and after ingesting; read-out: Increase rate (%) of memory ability. How it is done: A person administrates see a random series of 100 numbers, typed by PC, for 10 minutes and memory it. Then recite and write down the memorized number series. To check the recited series with the original one to see how many numbers are correct. In each testing at least has 10 minutes interval, and repeat four times. […] Each kind of drugs testing is done in half day, morning or afternoon only. The testing results were counted by one correct number for one point. Make the average value of four times testing of before and after drug ingesting, respectively. The increase of learning or memory ability is calculated by following equation and listed in Table 14: Rate of increase of memory ability=[(average value of four time testing before ingesting drug)−(average value of four times testing after ingesting drug)]×100%/(average value of four time testing before ingesting drug)

Take `O=C(O)CC(O)C(=O)O` (stereo not shown) [Malic acid]: the inhibition at 100 µg/mL in test [1] (adding 5% of coffee extract, read-out: inhibiting rate (%) (adding 5% of coffee extract)) was found to be 100%; in test [1] (non adding coffee extract, read-out: Inhibiting rate (%) (non adding coffee extract)), 100%. The “Inhibiting rate (%) (adding 0.1 w/v % of drug)” value in the test on mice (with 0.1 w/v % of caffeine) is listed as 100%. For the same molecule, the “Inhibiting rate (%) (non-caffeine added)” value in the test with mice (without caffeine) came to 96%. The “Days needed to suppurate and recovery completely” value in test [2] (one value per patient) is “About 8 days and ~10 days”. Also, in test [2] (two patients), the Toothache pain entry is reported as “pains were killed”. Moreover, the change in vivo at 1800 mg in the test on person amounted to 315%.
